Measured values: US20080139558A1, “QUINOLONES USEFUL AS INDUCIBLE NITRIC OXIDE SYNTHASE INHIBITORS” (KALYPSYS, INC., priority 2006, published 2008)

Molecular target: T1, human iNOS (Homo sapiens, UniProt P35228)
T1 construct: expressed in transfected cells; host or cells: HEK293
Assay: DAN assay of nitric oxide production (hiNOS)
Type: cell-based
Conditions: enzyme expressed in HEK293 cells transiently transfected with human iNOS
How it was run: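 Human iNOS transiently expressed in HEK293 cells; NO production quantified as nitrite via 2,3-diaminonaphthalene reaction forming fluorescent naphthotriazole.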

T1 sequence (P35228 whole entry): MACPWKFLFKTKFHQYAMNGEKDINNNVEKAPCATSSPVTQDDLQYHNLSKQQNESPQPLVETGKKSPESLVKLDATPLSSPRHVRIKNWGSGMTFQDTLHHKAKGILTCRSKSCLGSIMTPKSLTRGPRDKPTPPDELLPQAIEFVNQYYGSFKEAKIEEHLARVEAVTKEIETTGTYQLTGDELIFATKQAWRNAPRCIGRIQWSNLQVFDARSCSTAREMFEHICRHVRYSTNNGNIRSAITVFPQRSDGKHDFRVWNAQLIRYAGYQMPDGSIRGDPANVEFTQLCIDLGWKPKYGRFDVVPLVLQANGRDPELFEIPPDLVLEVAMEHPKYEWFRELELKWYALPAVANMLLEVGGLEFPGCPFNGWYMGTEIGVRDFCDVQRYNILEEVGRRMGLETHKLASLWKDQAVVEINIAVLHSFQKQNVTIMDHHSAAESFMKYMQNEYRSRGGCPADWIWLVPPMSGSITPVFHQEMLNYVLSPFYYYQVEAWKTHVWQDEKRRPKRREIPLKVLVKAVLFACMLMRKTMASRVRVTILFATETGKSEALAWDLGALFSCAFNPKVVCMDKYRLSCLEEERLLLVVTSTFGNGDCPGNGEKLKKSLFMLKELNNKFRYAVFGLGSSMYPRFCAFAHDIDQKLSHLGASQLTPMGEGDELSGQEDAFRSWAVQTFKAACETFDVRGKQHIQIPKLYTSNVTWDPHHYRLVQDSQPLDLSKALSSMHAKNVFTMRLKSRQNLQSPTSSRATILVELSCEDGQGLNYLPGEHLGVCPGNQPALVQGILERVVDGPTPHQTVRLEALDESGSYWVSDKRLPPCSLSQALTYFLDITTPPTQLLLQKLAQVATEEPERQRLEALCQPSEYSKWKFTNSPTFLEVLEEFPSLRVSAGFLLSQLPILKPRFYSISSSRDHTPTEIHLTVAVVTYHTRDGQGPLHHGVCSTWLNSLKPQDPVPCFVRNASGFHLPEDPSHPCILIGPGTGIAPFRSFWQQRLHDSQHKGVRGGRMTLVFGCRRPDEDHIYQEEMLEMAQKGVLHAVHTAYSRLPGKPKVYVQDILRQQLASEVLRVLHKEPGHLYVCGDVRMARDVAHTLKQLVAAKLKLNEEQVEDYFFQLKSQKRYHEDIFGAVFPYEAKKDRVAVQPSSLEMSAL

Row | SMILES | EC50 [µM]
1 | COc1ccc2[nH]c(=O)cc(CN(C(=O)c3ccco3)c3ccccc3)c2c1 [Example 19, N-((6-Methoxy-2-oxo-1,2-dihydroquinolin-4-yl)methyl)-N-phenylfuran-2-carboxamide] | ≤ 5
2 | O=C(c1cnccn1)N(Cc1cc(=O)[nH]c2ccccc12)c1ccccc1 [Example 36, N-((2-Oxo-1,2-dihydroquinolin-4-yl)methyl)-N-phenylpyrazine-2-carboxamide] | > 5
3 | CC(C)N(Cc1cc(=O)[nH]c2ccccc12)C(=O)c1ccco1 [Example 9, N-Isopropyl-N-[(2-oxo-1,2-dihydroquinolin-4-yl)methyl]-2-furamide] | ≤ 5
4 | O=c1cc(CN(Cc2ccco2)c2ccccc2)c2ccccc2[nH]1 [Example 22, 4-(((Furan-2-ylmethyl)(phenyl)amino)methyl)quinolin-2(1H)-one] | ≤ 5
5 | Cc1cccnc1C(=O)N(Cc1cc(=O)[nH]c2ccccc12)c1ccccc1 [Example 38, 3-Methyl-N-((2-oxo-1,2-dihydroquinolin-4-yl)methyl)-N-phenylpicolinamide] | > 5
6 | O=C(c1cccnc1)N(Cc1cc(=O)[nH]c2ccccc12)c1ccccc1 [Example 33, N-((2-Oxo-1,2-dihydroquinolin-4-yl)methyl)-N-phenylnicotinamide] | > 5
7 | Cc1ncsc1C(=O)N(Cc1cc(=O)[nH]c2cc(F)ccc12)c1cccc(Cl)c1 [Example 51, N-(3-Chlorophenyl)-N-((7-fluoro-2-oxo-1,2-dihydroquinolin-4-yl)methyl)-4-methylthiazole-5-carboxamide] | > 5

Other lines, results leading:

Row | EC50 [µM] | SMILES
8 | ≤ 5 | O=c1cc(Cn2c(-c3ccccc3Cl)nc3ccccc32)c2ccc(F)c(F)c2[nH]1 [Example 241, 4-((2-(2-Chlorophenyl)-1H-benzo[d]imidazol-1-yl)methyl)-7,8-difluoroquinolin-2(1H)-one]
9 | ≤ 5 | Cc1ncsc1C(=O)N(Cc1cc(=O)[nH]c2c(F)cccc12)c1ccccc1 [Example 97, N-Phenyl-N-((8-fluoro-2-oxo-1,2-dihydroquinolin-4-yl)methyl)-4-methylthiazole-5-carboxamide]
10 | > 5 | Cc1ncsc1C(=O)N(Cc1cc(=O)[nH]c2c(F)c(F)ccc12)c1ccccn1 [Example 264, N-((7,8-Difluoro-2-oxo-1,2-dihydroquinolin-4-yl)methyl)-4-methyl-N-(pyridin-2-yl)thiazole-5-carboxamide]
11 | > 5 | O=c1cc(Cn2c(Cl)nc3ccccc32)c2ccc(F)c(F)c2[nH]1 [Example 203, 4-((2-Chloro-1H-benzo[d]imidazol-1-yl)methyl)-7,8-difluoroquinolin-2(1H)-one]
12 | ≤ 5 | Cc1ncsc1C(=O)N(Cc1cc(=O)[nH]c2cccc(F)c12)c1cccc(Cl)c1 [Example 111, N-(3-Chlorophenyl)-N-((5-fluoro-2-oxo-1,2-dihydroquinolin-4-yl)methyl)-4-methylthiazole-5-carboxamide]
13 | > 5 | CN(C)c1nc2ccccc2n1Cc1cc(=O)[nH]c2c(F)c(F)ccc12 [Example 201, 4-((2-(Dimethylamino)-1H-benzo[d]imidazol-1-yl)methyl)-7,8-difluoroquinolin-2(1H)-one]
14 | ≤ 5 | Cc1ncsc1C(=O)N(Cc1cc(=O)[nH]c2c(F)c(F)ccc12)c1cccc(Cl)c1C [Example 184, N-(3-Chloro-2-methylphenyl)-N-((7,8-difluoro-2-oxo-1,2-dihydroquinolin-4-yl)methyl)-4-methylthiazole-5-carboxamide]
15 | ≤ 5 | Cc1cccc2c1nc(CC(C)C)n2Cc1cc(=O)[nH]c2c(F)c(F)ccc12 [Example 225, 7,8-Difluoro-4-((2-isobutyl-4-methyl-1H-benzo[d]imidazol-1-yl)methyl)quinolin-2(1H)-one]
16 | > 5 | N#Cc1cccc(C(=O)N(Cc2cc(=O)[nH]c3c(F)cccc23)c2cccc(Cl)c2)c1 [Example 65, N-(3-Chlorophenyl)-3-cyano-N-((8-fluoro-2-oxo-1,2-dihydroquinolin-4-yl)methyl)benzamide]
